Measurements taken from patent US20250215030A1, “STAT MODULATORS AND USES THEREOF” (Recludix Pharma, Inc., priority 2022, published 2025).

Experiments:
[1] = biological target: T1, Recombinant STAT6 protein (STAT6(W123-T658)) (Homo sapiens, UniProt P42226); test: STAT6 Fluorescence Polarization (FP) Assay; format: binding; details: STAT6(W123-T658) 250 nM, probe 5-FAM-ApYKPFQDLI-NH2 2 nM, 45-minute incubation
T1 construct: STAT6(W123-T658)
T1 sequence (P42226 123-658): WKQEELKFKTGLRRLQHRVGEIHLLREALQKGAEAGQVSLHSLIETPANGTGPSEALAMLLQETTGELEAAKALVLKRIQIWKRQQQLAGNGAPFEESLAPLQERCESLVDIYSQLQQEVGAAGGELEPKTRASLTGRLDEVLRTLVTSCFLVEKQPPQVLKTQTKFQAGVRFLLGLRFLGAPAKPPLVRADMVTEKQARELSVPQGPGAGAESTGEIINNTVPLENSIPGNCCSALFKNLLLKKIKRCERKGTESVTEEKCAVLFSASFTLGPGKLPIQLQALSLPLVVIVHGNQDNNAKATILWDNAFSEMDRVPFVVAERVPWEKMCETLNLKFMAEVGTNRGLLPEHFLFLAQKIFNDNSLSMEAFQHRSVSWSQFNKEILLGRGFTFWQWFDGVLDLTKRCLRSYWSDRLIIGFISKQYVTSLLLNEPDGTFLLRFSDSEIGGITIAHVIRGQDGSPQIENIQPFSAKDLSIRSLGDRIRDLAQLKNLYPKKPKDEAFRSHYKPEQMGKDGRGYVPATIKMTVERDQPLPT
Summary of the method: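 STAT6 (W123-T658) at 250 nM mixed with 2 nM 5-FAM-ApYKPFQDLI-NH2 probe in HEPES pH 7.4 buffer with DTT and Tween 20, 1% DMSO final. Polarization read after 45 min at room temperature; IC50 by nonlinear regression of mP versus log concentration, reported in bins A–D.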

[2] = biological target: T2, Recombinant STAT3 protein (STAT3(G127-I722)) (Homo sapiens, UniProt P40763); test: STAT3 Fluorescence Polarization (FP) Assay; format: binding; details: STAT3(G127-I722) 25 nM, probe 5-FAM-GpYLPQTV-NH2 2 nM, 45-minute incubation
T2 construct: STAT3(G127-I722)
Summary of the method: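 STAT3(G127-I722) at 25 nM and 5-FAM-GpYLPQTV-NH2 probe at 2 nM in HEPES pH 7.4 buffer with NaCl, EDTA, Tween 20, DTT; 1% DMSO. FP read after 45 min at room temperature; IC50 by nonlinear regression of mP vs log concentration, binned A ≤100 nM to D >10 μM.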

T2 sequence (P40763 127-722, species assumed): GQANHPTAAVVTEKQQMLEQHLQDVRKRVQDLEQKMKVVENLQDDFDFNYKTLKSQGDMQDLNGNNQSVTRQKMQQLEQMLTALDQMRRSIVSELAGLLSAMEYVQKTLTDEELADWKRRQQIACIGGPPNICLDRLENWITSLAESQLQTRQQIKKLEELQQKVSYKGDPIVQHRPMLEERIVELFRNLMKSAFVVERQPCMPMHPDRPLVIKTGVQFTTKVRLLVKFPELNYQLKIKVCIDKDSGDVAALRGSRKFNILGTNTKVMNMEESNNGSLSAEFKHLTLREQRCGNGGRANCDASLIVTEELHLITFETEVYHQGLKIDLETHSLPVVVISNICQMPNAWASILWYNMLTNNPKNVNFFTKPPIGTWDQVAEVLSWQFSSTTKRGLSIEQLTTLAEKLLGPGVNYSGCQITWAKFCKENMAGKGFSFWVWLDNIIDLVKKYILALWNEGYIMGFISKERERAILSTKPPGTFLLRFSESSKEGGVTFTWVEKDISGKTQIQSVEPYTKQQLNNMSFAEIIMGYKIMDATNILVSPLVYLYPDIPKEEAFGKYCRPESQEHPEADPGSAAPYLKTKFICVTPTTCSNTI

IC50 [1] [µM] | IC50 [2] [µM] | SMILES
3 to 30 | < 0.1 | C[C@]12CC[C@H](NC(=O)c3cc4cc(C(F)(F)P(=O)(O)O)ccc4s3)C(=O)N3[C@H](CC[C@H]3C(=O)N3CC(c4cccnc4)C3)[C@H]1C2 [Example 234, (difluoro(2-(((3S,6S,8aR,9aS,9bR)-8a-methyl-5-oxo-3-(3-(pyridin-3-yl)azetidine-1-carbonyl)decahydro-1H-cyclopropa[c]pyrrolo[1,2-a]azocin-6-yl)carbamoyl)benzo[b]thiophen-5-yl)methyl)phosphonic acid]
> 30 | 0.1 to 1 | C[C@]12CC[C@H](NC(=O)c3cc4cc(CP(=O)(O)O)ccc4s3)C(=O)N3[C@H](CC[C@H]3C(=O)N3CC(c4cccnc4)C3)[C@H]1C2 [Example 235, ((2-(((3S,6S,8aR,9aS,9bR)-8a-methyl-5-oxo-3-(3-(pyridin-3-yl)azetidine-1-carbonyl)decahydro-1H-cyclopropa[c]pyrrolo[1,2-a]azocin-6-yl)carbamoyl)benzo[b]thiophen-5-yl)methyl)phosphonic acid]
3 to 30 | 0.1 to 1 | COC1(c2nccn2C)CN(C(=O)[C@@H]2CC[C@@H]3C[C@@]4(C)C[C@H]4C[C@H](NC(=O)c4cc5cc(C(F)(F)P(=O)(O)O)ccc5s4)C(=O)N32)C1 [Example 237, (difluoro(2-(((3S,6S,7aS,8aR,9aR)-3-(3-methoxy-3-(1-methyl-1H-imidazol-2-yl)azetidine-1-carbonyl)-8a-methyl-5-oxodecahydro-1H-cyclopropa[d]pyrrolo[1,2-a]azocin-6-yl)carbamoyl)benzo[b]thiophen-5-yl)methyl)phosphonic acid]
> 30 | 0.1 to 1 | C[C@]12C[C@H]3CC[C@@H](C(=O)N4CC(c5cccnc5)C4)N3C(=O)[C@@H](NC(=O)c3cc4cc(CP(=O)(O)O)ccc4s3)C[C@H]1C2 [Example 238, ((2-(((3S,6S,7aR,8aS,9aR)-8a-methyl-5-oxo-3-(3-(pyridin-3-yl)azetidine-1-carbonyl)decahydro-1H-cyclopropa[d]pyrrolo[1,2-a]azocin-6-yl)carbamoyl)benzo[b]thiophen-5-yl)methyl)phosphonic acid]
> 30 | < 0.1 | Cc1ccncc1C1CN(C(=O)[C@@H]2CC[C@@H]3C[C@@H]4C[C@@H]4C[C@H](NC(=O)c4cc5cc(CP(=O)(O)O)ccc5s4)C(=O)N32)C1 [Example 243, ((2-(((3S,6S,7aR,8aS,9aR)-3-(3-(4-methylpyridin-3-yl)azetidine-1-carbonyl)-5-oxodecahydro-1H-cyclopropa[d]pyrrolo[1,2-a]azocin-6-yl)carbamoyl)benzo[b]thiophen-5-yl)methyl)phosphonic acid]
3 to 30 | 1 to 10 | CC(=O)N1C[C@H](NC(=O)[C@@H]2CC[C@@H]3C[C@@H]4C[C@@H]4C[C@H](NC(=O)c4cc5cc(CP(=O)(O)O)ccc5s4)C(=O)N32)[C@@H](F)C1 [Example 244, ((2-(((3S,6S,7aR,8aS,9aR)-3-(((3S,4S)-1-acetyl-4-fluoropyrrolidin-3-yl)carbamoyl)-5-oxodecahydro-1H-cyclopropa[d]pyrrolo[1,2-a]azocin-6-yl)carbamoyl)benzo[b]thiophen-5-yl)methyl)phosphonic acid]
3 to 30 | 0.1 to 1 | O=C(N[C@H]1C[C@@H]2C[C@@H]2C[C@H]2CC[C@@H](C(=O)N[C@H]3CN(c4ccccn4)C[C@@H]3F)N2C1=O)c1cc2cc(CP(=O)(O)O)ccc2s1 [Example 246, ((2-(((3S,6S,7aS,8aR,9aR)-3-(((3S,4S)-4-fluoro-1-(pyridin-2-yl)pyrrolidin-3-yl)carbamoyl)-5-oxodecahydro-1H-cyclopropa[d]pyrrolo[1,2-a]azocin-6-yl)carbamoyl)benzo[b]thiophen-5-yl)methyl)phosphonic acid]
> 30 | < 0.1 | O=C(N[C@H]1C[C@@H]2C[C@@H]2C[C@H]2CC[C@@H](C(=O)N3CC(c4cnccc4F)C3)N2C1=O)c1cc2cc(CP(=O)(O)O)ccc2s1 [Example 247, ((2-(((3S,6S,7aS,8aR,9aR)-3-(3-(4-fluoropyridin-3-yl)azetidine-1-carbonyl)-5-oxodecahydro-1H-cyclopropa[d]pyrrolo[1,2-a]azocin-6-yl)carbamoyl)benzo[b]thiophen-5-yl)methyl)phosphonic acid]
0.3 to 3 | < 0.1 | O=C(N[C@H]1C[C@H]2C[C@H]2C[C@H]2CC[C@@H](C(=O)N3CC(c4cnccc4F)C3)N2C1=O)c1cc2cc(C(F)P(=O)(O)O)ccc2s1 (stereo partly drawn) [Example 248, (fluoro(2-(((3S,6S,7aR,8aS,9aR)-3-(3-(4-fluoropyridin-3-yl)azetidine-1-carbonyl)-5-oxodecahydro-1H-cyclopropa[d]pyrrolo[1,2-a]azocin-6-yl)carbamoyl)benzo[b]thiophen-5-yl)methyl)phosphonic acid]
3 to 30 | < 0.1 | O=C(N[C@H]1C[C@H]2C[C@H]2C[C@H]2CC[C@@H](C(=O)N3CC(c4cnccc4F)C3)N2C1=O)c1cc2cc(CP(=O)(O)O)ccc2s1 [Example 250, ((2-(((3S,6S,7aR,8aS,9aR)-3-(3-(4-fluoropyridin-3-yl)azetidine-1-carbonyl)-5-oxodecahydro-1H-cyclopropa[d]pyrrolo[1,2-a]azocin-6-yl)carbamoyl)benzo[b]thiophen-5-yl)methyl)phosphonic acid]
> 30 | < 0.1 | CCc1ccncc1C1CN(C(=O)[C@@H]2CC[C@@H]3C[C@H]4C[C@H]4C[C@H](NC(=O)c4cc5cc(CP(=O)(O)O)ccc5s4)C(=O)N32)C1 [Example 252, ((2-(((3S,6S,7aS,8aR,9aR)-3-(3-(4-ethylpyridin-3-yl)azetidine-1-carbonyl)-5-oxodecahydro-1H-cyclopropa[d]pyrrolo[1,2-a]azocin-6-yl)carbamoyl)benzo[b]thiophen-5-yl)methyl)phosphonic acid]
3 to 30 | < 0.1 | O=C(N[C@H]1C[C@H]2C[C@H]2C[C@H]2CC[C@@H](C(=O)N[C@H]3CN(c4cccnc4)C[C@@H]3F)N2C1=O)c1cc2cc(CP(=O)(O)O)ccc2s1 [Example 253, ((2-(((3S,6S,7aR,8aS,9aR)-3-(((3S,4S)-4-fluoro-1-(pyridin-3-yl)pyrrolidin-3-yl)carbamoyl)-5-oxodecahydro-1H-cyclopropa[d]pyrrolo[1,2-a]azocin-6-yl)carbamoyl)benzo[b]thiophen-5-yl)methyl)phosphonic acid]
0.3 to 3 | 0.1 to 1 | CC(=O)N1C[C@H](NC(=O)[C@@H]2CC[C@@H]3C[C@@H]4C[C@@H]4C[C@H](NC(=O)c4cc5cc(C(F)P(=O)(O)O)ccc5s4)C(=O)N32)[C@@H](F)C1 (stereo partly drawn) [Example 254, ((2-(((3S,6S,7aR,8aS,9aR)-3-(((3S,4S)-1-acetyl-4-fluoropyrrolidin-3-yl)carbamoyl)-5-oxodecahydro-1H-cyclopropa[d]pyrrolo[1,2-a]azocin-6-yl)carbamoyl)benzo[b]thiophen-5-yl)fluoromethyl)phosphonic acid]
3 to 30 | 0.1 to 1 | O=C(N[C@H]1C[C@@H]2C[C@@H]2C[C@H]2CC[C@@H](C(=O)N[C@H]3CN(c4cccnc4)C[C@@H]3F)N2C1=O)c1cc2cc(CP(=O)(O)O)ccc2s1 [Example 256, ((2-(((3S,6S,7aS,8aR,9aR)-3-(((3S,4S)-4-fluoro-1-(pyridin-3-yl)pyrrolidin-3-yl)carbamoyl)-5-oxodecahydro-1H-cyclopropa[d]pyrrolo[1,2-a]azocin-6-yl)carbamoyl)benzo[b]thiophen-5-yl)methyl)phosphonic acid]
3 to 30 | > 10 | O=C(N[C@H]1C[C@@H]2C[C@@H]2C[C@H]2CC[C@@H](C(=O)N[C@H]3CN(c4ncccn4)C[C@@H]3F)N2C1=O)c1cc2cc(CP(=O)(O)O)ccc2s1 [Example 257, ((2-(((3S,6S,7aS,8aR,9aR)-3-(((3S,4S)-4-fluoro-1-(pyrimidin-2-yl)pyrrolidin-3-yl)carbamoyl)-5-oxodecahydro-1H-cyclopropa[d]pyrrolo[1,2-a]azocin-6-yl)carbamoyl)benzo[b]thiophen-5-yl)methyl)phosphonic acid]
0.3 to 3 | < 0.1 | CC(=O)N1CC2C1CCN2C(=O)[C@@H]1CC[C@@H]2C[C@H]3C[C@H]3C[C@H](NC(=O)c3cc4cc(C(F)(F)P(=O)(O)O)ccc4s3)C(=O)N21 (stereo partly drawn) [Example 258, ((2-(((3S,6S,7aS,8aR,9aR)-3-(6-acetyl-2,6-diazabicyclo[3.2.0]heptane-2-carbonyl)-5-oxodecahydro-1H-cyclopropa[d]pyrrolo[1,2-a]azocin-6-yl)carbamoyl)benzo[b]thiophen-5-yl)difluoromethyl)phosphonic acid]
